Like-named read-outs stand apart in the source and are kept apart here.
Key:
[1] = Pharmacokinetics of a single intraperitoneal dose in mice; format: in vivo, C57BL/6J mice; conditions: for CNS penetrance (in words): Fig. 8 summary of kinetics profiling in animal models; for time after administration at which agents are completely washed out of the brain: IP administration; for Tmax: brain and plasma; for Kp: brain/plasma
A53T mice = assay: α-Synuclein, HVA and dopamine levels in transgenic A53T mice; format: in vivo, mouse
APP mice = assay: Aβ and tau levels in transgenic APP mice; format: in vivo, mouse; conditions: 3 consecutive weeks; for Insoluble human Aβ vs DMSO (in words): p < 0.01, 0.001
Abl = conditions: read-out: IC50 Abl; cited from earlier work
DDR1/2 = conditions: read-out: IC50 DDR1/2; cited from earlier work
SRC = conditions: cited from earlier work; for IC50: read-out: IC50 SRC
PDGFR-α = conditions: cited from earlier work
PDGFR-β = conditions: cited from earlier work; for IC50: read-out: IC50 PDGFR-β
c-Kit = conditions: read-out: IC50 c-Kit; cited from earlier work
[2] = system: rat B35 neuroblastoma transfected with Aβ42; assay: Aβ42 ELISA in Aβ42-transfected B35 neuroblastoma cells; format: cell-based; conditions: 10 µM, 24 h
DDR2 = conditions: read-out: IC50 DDR2; cited from earlier work
[3] = male, C57BL/6J, mouse, ip, 5 mg/kg
[4] = male, C57BL/6J, mouse, plasma, ip, 5 mg/kg
[5] = male, C57BL/6J, mouse, ip, 10 mg/kg
[6] = male, C57BL/6J, mouse, plasma, ip, 10 mg/kg
[7] = 12-month-old A53T mice, 5 mg/kg IP once daily, 3 consecutive weeks
[8] = 4- to 7-month-old APP mice, 10 mg/kg IP
[9] = single IP dose 1.25 mg/kg, mice

SMILES	CNS penetrance (in words) [1]	time after administration at which agents are completely washed out of the brain ([1]; mice)	Tmax [1, 3]	Kp [1, 3]	AUC [1, 4]	Cmax [1, 4]	AUC Brain ([1]; single IP dose 5 mg/kg, mice)	C max Brain ([1]; single IP dose 5 mg/kg, mice)	Tmax [1, 5]	AUC [1, 6]	Cmax [1, 6]	IC50 (Abl)	IC50 (DDR1/2)	inhibition of Src (SRC)	IC50 (SRC)	effect on total tau levels (in words) (APP mice; [8])	Insoluble human Aβ vs DMSO (in words) (APP mice; [8])	IC50 (c-Kit)	IC50 (PDGFR-α; read-out: IC50 PDGFR-α)	IC50 (PDGFR-β)	other results
Cc1cn(-c2cc(NC(=O)c3ccc(C)c(Nc4nccc(-c5cnccn5)n4)c3)cc(C(F)(F)F)c2)cn1 [Radotinib]	medium-to-high	4 to 5 h	–	–	–	–	–	–	1 h	83.3 µM·h	24.4 µM	0.034 µM	< 0.18 µM	do not appear to inhibit Src	> 2 µM	no effect	significantly decreased	> 1.3 µM	0.0755 µM	0.13 µM	Kp [1, 5]: 0.05; AUC Brain ([1]; single IP dose 10 mg/kg, mice): 1.839; C max Brain ([1]; single IP dose 10 mg/kg, mice): 1.004 µM; α-syn levels, ELISA, compared to DMSO (A53T mice; [7]): no difference; α-syn levels, Western blot, compared to DMSO (A53T mice; [7]): no change; effect on phosphorylated tau levels (in words) (APP mice; [8]): no effect
Cc1cn(-c2cc(NC(=O)c3ccc(C)c(Nc4nccc(-c5cccnc5)n4)c3)cc(C(F)(F)F)c2)cn1 [Nilotinib]	–	–	–	–	–	–	–	–	1 h	174 µM·h	33.7 µM	[…]	< 0.006 µM	do not appear to inhibit Src	–	no effect	significantly decreased	–	< 0.071 µM	< 0.06 µM	reduction of phospho-tau (ser396) compared with DMSO (APP mice; [8]): 28%; Aβ42 (ELISA) in Aβ42-transfected B35 cells (in words) [2]: reduce Aβ42; IC50 (DDR2): […]
Oc1cccc(Nc2ccnc3cc(-c4cccc(CN5CCOCC5)c4)sc23)c1 [LCB-03-0110]	–	–	–	–	–	–	–	–	–	–	–	> 1 µM	0.006 µM	–	0.0013 µM	–	–	0.591 µM	0.069 µM	0.409 µM	Cmax ([1]; read-out: C max Plasma, single IP dose 1.25 mg/kg, mice): 2.35 µM; Cmax ([1]; read-out: C max Plasma, single IP dose 2.5 mg/kg, mice): 3.65 µM; AUC Brain [1, 9]: 0.2302; AUC Plasma [1, 9]: 2.805; C max Brain [1, 9]: 0.245 µM; Ratio (%) brain to plasma [1, 9]: 10%; T max Time [1, 9]: 1 h; AUC Brain ([1]; single IP dose 2.5 mg/kg, mice): 0.3152; AUC Plasma ([1]; single IP dose 2.5 mg/kg, mice): 6.482; C max Brain ([1]; single IP dose 2.5 mg/kg, mice): 0.445 µM; Ratio (%) brain to plasma ([1]; single IP dose 2.5 mg/kg, mice): 12%; T max Time ([1]; single IP dose 2.5 mg/kg, mice): 1 h

Further lines, with some results ahead:

CNS penetrance (in words) [1]	time after administration at which agents are completely washed out of the brain ([1]; mice)	Tmax [1, 3]	Kp [1, 3]	AUC [1, 4]	Cmax [1, 4]	AUC Brain ([1]; single IP dose 5 mg/kg, mice)	C max Brain ([1]; single IP dose 5 mg/kg, mice)	Tmax [1, 5]	AUC [1, 6]	Cmax [1, 6]	SMILES	IC50 (Abl)	IC50 (DDR1/2)	inhibition of Src (SRC)	IC50 (SRC)	effect on total tau levels (in words) (APP mice; [8])	Insoluble human Aβ vs DMSO (in words) (APP mice; [8])	IC50 (c-Kit)	IC50 (PDGFR-α; read-out: IC50 PDGFR-α)	IC50 (PDGFR-β)	other results
high	4 to 5 h	1 h	0.12	69.5 µM·h	19.4 µM	4.193	2.362 µM	–	–	–	Cc1ccc(NC(=O)c2ccc(CN3CC[C@H](N(C)C)C3)c(C(F)(F)F)c2)cc1Nc1nccc(-c2cncnc2)n1 [Bafetinib]	0.0058 µM	0.22 µM	do not appear to inhibit Src	1.7 µM	–	–	–	–	–	levels of α-syn measured via ELISA (in words) (A53T mice; A53T mice, 10, 5 or 2.5 mg/kg IP daily): did not reduce; ELISA homovanillic acid and dopamine measurements (in words) (A53T mice; A53T mice, bafetinib treatment IP daily): remain unchanged; reduction of the level of soluble Aβ40 compared to DMSO (APP mice; APP mice, 5 mg/kg IP): 9%; reduction in the insoluble Aβ42 compared with DMSO (APP mice; APP mice, 5 mg/kg IP, not significant): 17%; total tau levels compared with DMSO-treated APP mice (in words) (APP mice; APP mice, bafetinib 5 mg/kg or LCB 2.5 mg/kg IP): significant reduction; IC50 (PDGFR-α; read-out: IC50 to PDGFRα): 0.056 µM; affinity to PDGFRβ (PDGFR-β): no affinity
medium-to-high	[…]	[…]	[…]	51.7 µM·h	19.4 µM	1.996	0.918 µM	–	–	–	COc1cc(Nc2c(C#N)cnc3cc(OCCCN4CCN(C)CC4)c(OC)cc23)c(Cl)cc1Cl [Bosutinib]	[…]	> 4.9 µM	–	[…]	–	–	–	–	–	–

From PMC6544596 (Drugs in R&D, 2019)
